Data taken from ChEMBL document CHEMBL3286289, “Synthesis and structure-activity relationship of non-phosphorus-based fructose-1,6-bisphosphatase inhibitors: 2,5-Diphenyl-1,3,4-oxadiazoles” (Eur J Med Chem, 2014).
pIC50: −log10 of the molar value. Blank lines part the entries; values can stand above or below the molecule they belong to. Calls of active or inactive are those of the source. The calls are words filed in the database; no cut-off is given here.

Assays:
[1] = Inhibition of human recombinant FBPase-mediated fructose-6-phosphate formation by coupled spectrophotometric assay
[2] = test system: Hepatocyte; assay: Inhibition of gluconeogenesis in Sprague-Dawley rat hepatocytes assessed as decrease in glucose output at 2 mM after 4 hrs by colorimetric assay relative to control; format: functional; conditions: values are per cent of control
[3] = test system: Hepatocyte; assay: Inhibition of gluconeogenesis in Sprague-Dawley rat hepatocytes assessed as decrease in glucose output at 10 uM after 4 hrs by colorimetric assay relative to control; format: functional; conditions: values are per cent of control
[4] = test system: Hepatocyte; assay: Inhibition of gluconeogenesis in Sprague-Dawley rat hepatocytes assessed as decrease in glucose output at 20 uM after 4 hrs by colorimetric assay relative to control; format: functional; conditions: values are per cent of control
[5] = test system: Hepatocyte; assay: Inhibition of gluconeogenesis in Sprague-Dawley rat hepatocytes assessed as decrease in glucose output at 40 uM after 4 hrs by colorimetric assay relative to control; format: functional; conditions: values are per cent of control
[6] = test system: Hepatocyte; assay: Inhibition of gluconeogenesis in Sprague-Dawley rat hepatocytes assessed as glucose output at 80 to 160 uM after 4 hrs by colorimetric assay; format: functional, cell-based

pIC50 [1]: 4.81
SMILES: COc1ccc(CC(=O)Nc2cccc(-c3nnc(-c4cccc(Cl)c4)o3)c2)cc1OC

SMILES: CN(C)C(=N)NC(=N)N [METFORMIN]
response, % of control at 2000 µM [2]: 75%

pIC50 [1]: 5.30
SMILES: Cc1ccc(-c2nnc(-c3cccc(NC(=O)CCCCN4CCOCC4)c3)o2)cc1

pIC50 [1]: 5.89
SMILES: Nc1ncnc2c1ncn2[C@@H]1O[C@H](COP(=O)(O)O)[C@@H](O)[C@H]1O [ADENOSINE PHOSPHATE]

pIC50 [1]: 5.30
SMILES: Cc1ccc(-c2nnc(-c3cccc(NC(=O)CCCN4CCOCC4)c3)o2)cc1

pIC50 [1]: 5.60
SMILES: Cc1ccc(-c2nnc(-c3cccc(NC(=O)CCCCCN4CCOCC4)c3)o2)cc1
response, % of control at 10 µM [3]: 83.3%
response, % of control at 20 µM [4]: 83.6%
response, % of control at 40 µM [5]: 85.2%
inhibition [6]: inactive

pIC50 [1]: 5.35
SMILES: COc1ccc(CC(=O)Nc2cccc(-c3nnc(-c4ccc(C)cc4)o3)c2)cc1OC
response, % of control at 10 µM [3]: 96.7%
response, % of control at 20 µM [4]: 93.5%
response, % of control at 40 µM [5]: 103%
